{"source": "patent US9580435B2", "about": "“Pyrrolo[2,3-D]pyrimidine derivatives as CB2 receptor agonists” (priority 2013, dated 2017)", "key": {"[1]": {"biological_target": "T1, human CB2 receptors (Homo sapiens, UniProt P34972)", "T1 construct": "expressed in transfected cells; host or cells: CHO cells", "T1 sequence (P34972 whole entry)": "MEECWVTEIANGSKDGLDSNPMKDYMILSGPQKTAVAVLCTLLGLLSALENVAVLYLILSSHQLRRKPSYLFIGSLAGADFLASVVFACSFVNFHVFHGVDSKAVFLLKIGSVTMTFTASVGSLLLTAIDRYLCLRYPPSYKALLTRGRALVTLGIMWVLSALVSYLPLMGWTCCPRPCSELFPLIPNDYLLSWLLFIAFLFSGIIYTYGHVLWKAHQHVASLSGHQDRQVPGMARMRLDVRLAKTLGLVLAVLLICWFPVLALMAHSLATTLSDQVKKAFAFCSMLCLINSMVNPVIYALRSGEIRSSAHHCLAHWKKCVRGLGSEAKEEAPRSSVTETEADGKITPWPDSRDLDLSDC", "experiment": "functional cAMP assay, CHO cells expressing human CB2 receptors", "type": "cell-based", "procedure": "(§1) CHO cells expressing human CB1 or CB2 receptors are seeded 17-24 hours prior to the experiment 50.000 cells per well in a black 96 well plate with flat clear bottom (Corning Costar #3904) in DMEM (Invitrogen No. 31331), lx HT supplement, with 10% fetal calf serum and incubated at 5% CO2 and 37° C. in a humidified incubator. The growth medium was exchanged with Krebs Ringer Bicarbonate buffer with 1 mM IBMX and incubated at 30° C. for 30 min. Compounds were added to a final assay volume of 100 μl and incubated for 30 min at 30° C. Using the cAMP-Nano-TRF detection kit the assay (Roche Diagnostics) was stopped by the addition of 50 μl lysis reagent (Tris, NaCl, 1.5% Triton X100, 2.5% NP40, 10% NaN3) and 50 μl detection solutions (20 μM mAb Alexa700-cAMP 1:1, and 48 μM Ruthenium-2-AHA-cAMP) and shaken for 2 h at room temperature. The time-resolved energy transfer is measured by a TRF reader (Evotec Technologies GmbH), equipped with a ND:YAG laser as excitation source. The plate is measured twice with the excitation at 355 nm and at the emission with a delay of 100 ns and a gate of 100 ns, total exposure time 10 s at 730 (bandwidth 30 nm) or 645 nm (bandwidth 75 nm), respectively. The FRET signal is calculated as follows: FRET=T730-Alexa730-P(T645-B645) with P=Ru730-B730/Ru645-B645, where T730 is the test well measured at 730 nM, T645 is the test well measured at 645 nm, B730 and B645 are the buffer controls at 730 nm and 645 nm, respectively. cAMP content is determined from the function of a standard curve spanning from 10 μM to 0.13 nM cAMP.\n(§2) EC50 values were determined using Activity Base analysis (ID Business Solution, Limited). The EC50 values for a wide range of cannabinoid agonists generated from this assay were in agreement with the values published in the scientific literature."}, "[2]": {"biological_target": "T2, human CB1 receptors (Homo sapiens, UniProt P21554)", "T2 construct": "expressed in transfected cells; host or cells: CHO cells", "T2 sequence (P21554 whole entry)": "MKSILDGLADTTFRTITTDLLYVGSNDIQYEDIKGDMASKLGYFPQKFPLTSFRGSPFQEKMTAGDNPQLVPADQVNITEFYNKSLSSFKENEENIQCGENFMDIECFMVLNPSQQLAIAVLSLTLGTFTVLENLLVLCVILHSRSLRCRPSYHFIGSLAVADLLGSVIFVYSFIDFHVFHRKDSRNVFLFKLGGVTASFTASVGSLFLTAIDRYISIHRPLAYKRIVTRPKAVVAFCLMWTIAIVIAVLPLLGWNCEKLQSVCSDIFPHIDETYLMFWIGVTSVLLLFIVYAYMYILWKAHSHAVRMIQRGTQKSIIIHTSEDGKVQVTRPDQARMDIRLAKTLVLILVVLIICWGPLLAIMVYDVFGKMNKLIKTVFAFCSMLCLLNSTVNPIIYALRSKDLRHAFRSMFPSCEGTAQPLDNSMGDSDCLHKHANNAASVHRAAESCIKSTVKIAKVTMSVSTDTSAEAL", "experiment": "functional cAMP assay, CHO cells expressing human CB1 receptors", "type": "cell-based", "procedure": "as §1, §2"}}, "note": "Where two headings read alike, the source gives them in different places.", "data": [{"compound": "CC(C)(C)c1nc(N2CC[C@H](O)C2)c2ccn(Cc3ccc(F)cc3Cl)c2n1", "note": "[Example 43, (3S)-1-[2-tert-butyl-7-[(2-chloro-4-fluorophenyl)methyl]pyrrolo[2,3-d]pyrimidin-4-yl]pyrrolidin-3-ol]", "values": [{"measurement": "EC50", "setting": "[1]", "value": 6.3, "unit": "nM"}, {"measurement": "EC50", "setting": "[2]", "value": "> 10000", "unit": "nM"}]}, {"compound": "CC(C)(C)c1nc(N2CC[C@H](O)C2)c2ccn(Cc3ccccc3C(F)(F)F)c2n1", "note": "[Example 44, (3S)-1-[2-tert-butyl-7-[[2-(trifluoromethyl)phenyl]methyl]pyrrolo[2,3-d]pyrimidin-4-yl]pyrrolidin-3-ol]", "values": [{"measurement": "EC50", "setting": "[1]", "value": 3.3, "unit": "nM"}, {"measurement": "EC50", "setting": "[2]", "value": "> 10000", "unit": "nM"}]}, {"compound": "CC(C)(C)c1nc(N2CC[C@H](O)C2)c2ccn(Cc3ccccc3S(C)(=O)=O)c2n1", "note": "[Example 45, (3S)-1-[2-tert-butyl-7-[(2-methylsulfonylphenyl)methyl]pyrrolo[2,3-d]pyrimidin-4-yl]pyrrolidin-3-ol]", "values": [{"measurement": "EC50", "setting": "[1]", "value": 4.2, "unit": "nM"}, {"measurement": "EC50", "setting": "[2]", "value": "> 10000", "unit": "nM"}]}, {"compound": "CC(C)(C)c1nc(N2CC[C@H](O)C2)c2ccn(Cc3cccnc3Cl)c2n1", "note": "[Example 46, (3S)-1-[2-tert-butyl-7-[(2-chloropyridin-3-yl)methyl]pyrrolo[2,3-d]pyrimidin-4-yl]pyrrolidin-3-ol]", "values": [{"measurement": "EC50", "setting": "[1]", "value": 5.1, "unit": "nM"}, {"measurement": "EC50", "setting": "[2]", "value": "> 10000", "unit": "nM"}]}, {"compound": "CC(C)(C)c1nc(N2CC[C@H](O)C2)c2ccn(Cc3ncccc3Cl)c2n1", "note": "[Example 47, (3S)-1-[2-tert-butyl-7-[(3-chloropyridin-2-yl)methyl]pyrrolo[2,3-d]pyrimidin-4-yl]pyrrolidin-3-ol]", "values": [{"measurement": "EC50", "setting": "[1]", "value": 5.8, "unit": "nM"}, {"measurement": "EC50", "setting": "[2]", "value": "> 10000", "unit": "nM"}]}, {"compound": "Cc1nonc1Cn1ccc2c(N3CC[C@H](O)C3)nc(C(C)(C)C)nc21", "note": "[Example 48, (3S)-1-[2-tert-butyl-7-[(4-methyl-1,2,5-oxadiazol-3-yl)methyl]pyrrolo[2,3-d]pyrimidin-4-yl]pyrrolidin-3-ol]", "values": [{"measurement": "EC50", "setting": "[1]", "value": 8.5, "unit": "nM"}, {"measurement": "EC50", "setting": "[2]", "value": "> 10000", "unit": "nM"}]}, {"compound": "CC(C)(C)c1nc(N2CC3(COC3)C2)c2ccn(Cc3ncccc3Cl)c2n1", "note": "[Example 49, 6-[2-tert-butyl-7-[(3-chloropyridin-2-yl)methyl]pyrrolo[2,3-d]pyrimidin-4-yl]-2-oxa-6-azaspiro[3.3]heptane]", "values": [{"measurement": "EC50", "setting": "[1]", "value": 10.7, "unit": "nM"}, {"measurement": "EC50", "setting": "[2]", "value": 307, "unit": "nM"}]}, {"compound": "Cn1nnnc1Cn1ccc2c(N3CC4(COC4)C3)nc(C(C)(C)C)nc21", "note": "[Example 50, 6-[2-tert-butyl-7-[(1-methyltetrazol-5-yl)methyl]pyrrolo[2,3-d]pyrimidin-4-yl]-2-oxa-6-azaspiro[3.3]heptane]", "values": [{"measurement": "EC50", "setting": "[1]; human EC50, functional cAMP assay, CHO cells expressing human CB2, read-out: EC50:CB2", "value": 531, "unit": "nM"}, {"measurement": "EC50", "setting": "[2]", "value": "> 10000", "unit": "nM"}]}]}
